In general, IC50 refers to the concentration that gives 50% inhibition.

These results are taken from patent US7595327B2, “Beta-sulfonamide hydroxamic acid inhibitors of tace/matrix metalloproteinase” (priority 2005, dated 2009).

In one test the target is T1, recombinant human MMP-7 (Homo sapiens, UniProt P09237).
T1 construct: Active, recombinant human MMP-7 was purchased from Calbiochem (catalog #444270; expressed in E. coli, 19 kDa); purchased Calbiochem 444270; host or cells: E. coli
T1 sequence (P09237 95-267): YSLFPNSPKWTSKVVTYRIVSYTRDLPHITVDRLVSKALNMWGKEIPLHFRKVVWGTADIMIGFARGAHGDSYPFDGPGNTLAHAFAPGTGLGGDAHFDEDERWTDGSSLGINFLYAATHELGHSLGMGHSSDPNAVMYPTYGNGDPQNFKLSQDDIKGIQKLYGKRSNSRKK
The experiment in a line: In-vitro fluorescence assay of MMP-7 activity. It counts as biochemical. Here is the method:
The method was similar to that for the determination of MMP-1 activity, described above, with the following differences. Active, recombinant human MMP-7 was purchased from Calbiochem (catalog #444270; expressed in E. coli, 19 kDa). […] The concentration of the substrate stock was spectrophotometrically determined using the extinction coefficient at 410 nm of 7500 M^−1 cm^−1. The assay buffer (pH 7.4) consisted of 50 mM Hepes, 100 mM NaCl, 5 mM CaCI2, and 0.005% Brij-35. […] The plates were then incubated at room temperature for 30 minutes. The enzymatic reactions were initiated by adding substrate to a final concentration of 15 μM and were mixed by pipelting up and down. The final DMSO concentration in the assay was 10% and the final, total assay volume was 200 μl. […]

The subject of test [1] is TNF-α secretion in Raw 264.7 cells. The experiment in a line: Cell-based assay for inhibition of TNF-α secretion in Raw cells. The conditions noted are these: Mus musculus, RAW264.7, LPS 100 ng/ml, 4 hr. The method in brief:
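Confluent Raw 264.7 cells were seeded overnight, refed, and pre-incubated 1 hr with compound (0.2% final DMSO), then stimulated with LPS at 100 ng/ml final for 4 hr at 37° C. Supernatant TNF-α measured by ELISA; % inhibition and IC50 by curve fitting.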

The target in another test is MMP-13 (Homo sapiens, UniProt P45452). The experiment in a line: In-vitro fluorescence assay of MMP-13 activity. Format: biochemical. On the procedure: See Knight, C. […] […].
The method was essentially the same as for the determination of MMP-1 activity, described above, except that the final concentration of purified MMP in the assay was 0.5 nM, prepared by diluting with the assay buffer.

The target in test [2] is T2, TACE (catalytic domain of the recombinant TACE protein) (Homo sapiens, UniProt P78536).
T2 construct: The catalytic domain of the recombinant TACE protein was expressed and purified; made in house
The experiment in a line: TACE FRET assay using TACE Cat. Format: biochemical. The conditions noted are these: FRET, pro-TNF-α substrate peptide; read-out: TACE IC50. The method in brief:
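Recombinant TACE catalytic domain (1 ug/ml) pre-incubated 10 min at room temperature with inhibitor in 50 mM Tris-HCl pH 7.4, 25 mM NaCl, 4% glycerol, 0.005% Brij 35; Abz/Dpa pro-TNF-α peptide substrate added, fluorescence (Ex 320/Em 420) followed 10 min; IC50 from initial rates by Hill fit.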

Another test addresses T3, recombinant human MMP-2 (Homo sapiens, UniProt P08253).
T3 sequence (P08253 110-660): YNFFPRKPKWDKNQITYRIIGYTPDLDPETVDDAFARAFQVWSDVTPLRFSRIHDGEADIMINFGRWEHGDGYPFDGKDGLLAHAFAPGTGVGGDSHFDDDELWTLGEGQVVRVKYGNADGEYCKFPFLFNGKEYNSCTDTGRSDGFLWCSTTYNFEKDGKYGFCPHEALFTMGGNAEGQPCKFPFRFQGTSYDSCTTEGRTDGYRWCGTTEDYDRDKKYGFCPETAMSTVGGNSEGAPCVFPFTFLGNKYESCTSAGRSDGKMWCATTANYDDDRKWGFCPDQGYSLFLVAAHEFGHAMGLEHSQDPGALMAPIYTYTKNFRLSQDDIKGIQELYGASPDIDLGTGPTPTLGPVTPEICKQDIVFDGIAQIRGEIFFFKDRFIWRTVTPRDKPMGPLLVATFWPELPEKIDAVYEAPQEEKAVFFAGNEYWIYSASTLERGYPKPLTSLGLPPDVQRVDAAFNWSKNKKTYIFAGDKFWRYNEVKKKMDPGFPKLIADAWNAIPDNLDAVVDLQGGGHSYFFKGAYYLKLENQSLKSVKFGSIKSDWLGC
The experiment in a line: In-vitro fluorescence assay of MMP-2 activity. Format: biochemical.

The target of test [3] is T4, recombinant human catalytic domain of MMP-1 (Homo sapiens, UniProt P03956).
T4 construct: The source of enzyme in the assay was the recombinant human catalytic domain of MMP-1
T4 sequence (P03956 100-269 limits assumed): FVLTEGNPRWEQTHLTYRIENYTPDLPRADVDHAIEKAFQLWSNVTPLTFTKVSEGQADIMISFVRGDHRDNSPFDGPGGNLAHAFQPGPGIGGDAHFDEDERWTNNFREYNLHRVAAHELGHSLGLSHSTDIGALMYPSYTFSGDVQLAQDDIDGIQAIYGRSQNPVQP
The experiment in a line: In-vitro fluorescence assay of MMP-1 activity. It counts as biochemical.
Method: A continuous assay was used in which the substrate is a synthetic peptide containing a fluorescent group (7-methoxycoumarin; Mca) that is quenched by energy transfer to a 2,4-dinitrophenyl group. […] The substrate used was Mca-PQGL-(3-[2,4-dinitrophenyl]-L-2,3-diaminopropionyl)-AR-OH (denoted as Wammp-5, custom synthesized by AnaSpec, Inc.). The assay buffer consisted of 50 mM Hepes (pH 7.4), 100 mM NaCl, 5 mM CaCI2, and 0.005% Brij-35. Each well of black polystyrene 96-well plates contained a 200 μL reaction mixture consisting of assay buffer, purified MMP (final concentration of 25 ng/ml, prepared by diluting with the assay buffer), and varied concentrations of inhibitor (prepared by serially diluting a given inhibitor in DMSO in 96-well polypropylene plate). […] The enzymatic reactions were initiated by adding the substrate to a final concentration of 20 μM, and mixing 10 times with a pipette. The final DMSO concentration in the assay was 6.0%.
Plots of the inhibitor concentration vs. the percent inhibition were fit to the following equation: y=(a−d)/[1+(x/c)^b]+d, a general sigmoidal curve with Hill slope, a to d. x is the inhibitor concentration under test. y is the percent inhibition. a is the limiting response as x approaches zero. As x increases without bound, y tends toward its limit d. c is the inflection point (IC50) for the curve. That is, y is halfway between the lower and upper asymptotes when x=c. b is the slope factor or Hill coefficient.

In a further test the target is recombinant human MMP-8 (Homo sapiens, UniProt P22894). The experiment in a line: In-vitro fluorescence assay of MMP-8 activity.
recombinant human MMP-8, sequence (P22894 101-467): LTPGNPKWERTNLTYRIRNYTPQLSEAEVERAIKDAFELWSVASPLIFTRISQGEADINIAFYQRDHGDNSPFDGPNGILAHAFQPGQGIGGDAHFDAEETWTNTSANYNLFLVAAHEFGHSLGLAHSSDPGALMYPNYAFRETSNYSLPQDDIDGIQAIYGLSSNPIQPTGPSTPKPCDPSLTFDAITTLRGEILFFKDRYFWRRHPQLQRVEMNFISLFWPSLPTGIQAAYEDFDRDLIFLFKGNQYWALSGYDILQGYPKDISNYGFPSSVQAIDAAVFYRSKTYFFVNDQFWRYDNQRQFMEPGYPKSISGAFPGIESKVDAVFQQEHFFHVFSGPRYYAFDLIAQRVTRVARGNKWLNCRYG

T2 sequence (P78536 223-474 limits assumed): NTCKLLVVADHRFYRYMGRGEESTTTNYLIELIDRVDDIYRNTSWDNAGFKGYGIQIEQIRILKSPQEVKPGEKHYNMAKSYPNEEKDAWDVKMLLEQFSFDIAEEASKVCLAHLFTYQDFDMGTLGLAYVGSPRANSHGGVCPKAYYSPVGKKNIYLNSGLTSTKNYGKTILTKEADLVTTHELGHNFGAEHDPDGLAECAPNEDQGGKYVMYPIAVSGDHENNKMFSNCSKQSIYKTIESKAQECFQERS

Consider `Cc1cc(COc2ccc(S(=O)(=O)N[C@@H]3CN(S(C)(=O)=O)C[C@@H]3C(=O)NO)cc2)c2ccccc2n1` (relative stereo) [Example 17, cis-N-Hydroxy-4-[({4-[(2-methylquinolin-4-yl)methoxy]phenyl}sulfonyl)amino]-1-(methylsulfonyl) pyrrolidine-3-carboxamide], for which the IC50 on recombinant human MMP-7 was 668 nM; in test [1], 24 nM; on MMP-13, more than 10000 nM; in test [2], 0.6 nM; on recombinant human MMP-2, more than 10000 nM; in test [3], more than 16700 nM. Further, the IC50 at recombinant human MMP-8 is more than 16700 nM.

For `Cc1cc(COc2ccc(S(=O)(=O)N[C@@H]3CN(C=O)C[C@@H]3C(=O)NO)cc2)c2ccccc2n1` (relative stereo) [Example 20, cis-1-Formyl-N-hydroxy-4-[({4-[(2-methylquinolin-4-yl)methoxy]phenyl}sulfonyl)amino]pyrrolidine-3-carboxamide], the IC50 on recombinant human MMP-7 was 812 nM; in test [1], 20 nM; against MMP-13 it was 10200 nM; in test [2], 1.1 nM; at recombinant human MMP-2, more than 10000 nM; in test [3], more than 16700 nM. Also, the IC50 at recombinant human MMP-8 was more than 16700 nM.

For `CCNC(=O)N1C[C@H](C(=O)NO)[C@H](NS(=O)(=O)c2ccc(OCc3cc(C)nc4ccccc34)cc2)C1` (relative stereo) [Example 23, cis-1-Ethyl-N-hydroxy-4-[({4-[(2-methylquinolin-4-yl)methoxy]phenyl}sulfonyl)amino]pyrrolidine-1,3-dicarboxamide], the IC50 was 1170 nM at recombinant human MMP-7; 51 nM in test [1]; more than 16700 nM at MMP-13; 1.3 nM in test [2]; more than 16700 nM on recombinant human MMP-2; more than 16700 nM in test [3]. Moreover, the IC50 on recombinant human MMP-8 was more than 16700 nM.

Consider `Cc1cc(COc2ccc(S(=O)(=O)N[C@H]3COC[C@H]3C(=O)NO)cc2)c2ccccc2n1` (stereo in doubt) [Example 26, (3S,4R)-4-[4-(2-Methyl-quinolin-4-ylmethoxy)-benzenesulfonylamino]-tetrahydro-furan-3-carboxylic acid hydroxyamide], for which the IC50 on recombinant human MMP-7 is 827 nM; in test [1], 12 nM; at MMP-13 it was more than 16700 nM; in test [2], 0.6 nM; at recombinant human MMP-2, more than 16700 nM; in test [3], more than 16700 nM. Moreover, the IC50 at recombinant human MMP-8 was more than 16700 nM.

As for `Cc1cc(COc2ccc(S(=O)(=O)N[C@@H]3CCC[C@@H]3C(=O)NO)cc2)c2ccccc2n1` [Example 13, (1S,2R)-N-Hydroxy-2-[({4-[(2-methylquinolin-4-yl)methoxy]phenyl}sulfonyl)amino]cyclopentanecarboxamide], the IC50 on recombinant human MMP-7 was 444 nM; in test [1] it was 9 nM; at MMP-13, more than 10000 nM; in test [2] it was less than 0.6 nM; at recombinant human MMP-2 it was more than 10000 nM; in test [3] it was more than 16700 nM. Moreover, at recombinant human MMP-8, the IC50 was more than 16700 nM.

Consider `Cc1cc(COc2ccc(S(=O)(=O)N[C@@H]3CN(C(=O)NC(C)(C)C)CC[C@@H]3C(=O)NO)cc2)c2ccccc2n1` [Example 35, 3-[4-(2-Methyl-quinolin4-ylmethoxy)-benzenesulfonylamino]-piperidine-1,4-dicarboxylic acid 1-tert-butylamide 4-hydroxyamide], for which the IC50 was 4620 nM at recombinant human MMP-7; 58 nM in test [1]; more than 16700 nM against MMP-13; 1.4 nM in test [2]; more than 16700 nM at recombinant human MMP-2; more than 16700 nM in test [3]. For the same compound, the IC50 at recombinant human MMP-8 was more than 16700 nM.
